Reference: publication PMC12377202, “Design, synthesis, and cytotoxic evaluation of quinazoline-based derivatives as VEGER-2 inhibitors: comparative study against EGFR kinase activity, induction of apoptosis, and molecular docking study” (RSC Advances, 2025)

Assays:
Assay type in all cases: cell-based, human
TNF-alpha = TNF-alpha level in HepG-2 cells; details: control 43.48
Method: (§1) All synthesized compounds were tested at their cytotoxic concentrations in HepG-2 cells for analysis of gene expression levels of apoptotic markers caspase-3, caspase-9, TNF-α, and IL-6 proteins, and only two active compounds were tested for BAX and Bcl-2 proteins.
(§2) through Flow cytometric analysis.
(§3) Pellets were collected again and incubated with
(§4) Total RNA from vehicle-treated
(§5) (Thermo Scientific, USA).
(§6) All experiments were performed in […]

HepG-2 = experiment: MTT anti-proliferative assay, HepG-2; details: Homo sapiens, HepG2; for viability at 0.195 µg/mL / cytotoxicity at 0.195 µg/mL: HepG-2, 0.195 ug/ml; for cytotoxicity at 0.195 µg/mL / cytotoxicity at 0.391 µg/mL / cytotoxicity at 0.781 µg/mL / cytotoxicity at 1.563 µg/mL / cytotoxicity at 3.125 µg/mL / cytotoxicity at 6.25 µg/mL / cytotoxicity at 12.5 µg/mL / cytotoxicity at 25 µg/mL: read-out: Toxicity %; for viability at 0.391 µg/mL / cytotoxicity at 0.391 µg/mL: HepG-2, 0.391 ug/ml; for viability at 0.781 µg/mL / cytotoxicity at 0.781 µg/mL: HepG-2, 0.781 ug/ml; for viability at 1.563 µg/mL / cytotoxicity at 1.563 µg/mL: HepG-2, 1.563 ug/ml; for viability at 3.125 µg/mL / cytotoxicity at 3.125 µg/mL: HepG-2, 3.125 ug/ml; for viability at 6.25 µg/mL / cytotoxicity at 6.25 µg/mL: HepG-2, 6.25 ug/ml; for viability at 12.5 µg/mL / cytotoxicity at 12.5 µg/mL: HepG-2, 12.5 ug/ml; for viability at 25 µg/mL / cytotoxicity at 25 µg/mL: HepG-2, 25 ug/ml; for IC50: MTT, HepG-2, read-out: Cytotoxicity against cancer cells IC50 HepG-2
MCF-7 = experiment: MTT anti-proliferative assay, MCF-7; details: Homo sapiens, MCF7; for viability at 0.195 µmol / cytotoxicity at 0.195 µmol: MCF-7, 0.195 umol; for cytotoxicity at 0.195 µmol / cytotoxicity at 0.391 µmol / cytotoxicity at 0.781 µmol / cytotoxicity at 1.563 µmol / cytotoxicity at 3.125 µmol / cytotoxicity at 6.25 µmol / cytotoxicity at 12.5 µmol / cytotoxicity at 25 µmol: read-out: Toxicity %; for viability at 0.391 µmol / cytotoxicity at 0.391 µmol: MCF-7, 0.391 umol; for viability at 0.781 µmol / cytotoxicity at 0.781 µmol: MCF-7, 0.781 umol; for viability at 1.563 µmol / cytotoxicity at 1.563 µmol: MCF-7, 1.563 umol; for viability at 3.125 µmol / cytotoxicity at 3.125 µmol: MCF-7, 3.125 umol; for viability at 6.25 µmol / cytotoxicity at 6.25 µmol: MCF-7, 6.25 umol; for viability at 12.5 µmol / cytotoxicity at 12.5 µmol: MCF-7, 12.5 umol; for viability at 25 µmol / cytotoxicity at 25 µmol: MCF-7, 25 umol; for IC50: MTT, MCF-7, read-out: Cytotoxicity against cancer cells IC50 MCF-7
IL-6R = IL-6R level in HepG-2 cells; details: control 44.10; for IL-6R ± SE: HepG-2, at IC50 concentrations; for IL-6 ±SE: raw data, HepG2
Method: as §1, §2, §3, §4, §5, §6

caspase-3 = experiment: Caspase-3 expression level in HepG-2 cells; details: for Caspase-3 ± SE: HepG-2, at IC50 concentrations, control 0.460; for caspase-3 expression level, fold increase: HepG-2, vs control cells
Method: as §1, §2, §3, §4, §5, §6

K-562 = experiment: MTT anti-proliferative assay, K-562; details: Homo sapiens, K562; for viability at 0.195 µmol / cytotoxicity at 0.195 µmol: K-562, 0.195 umol; for cytotoxicity at 0.195 µmol / cytotoxicity at 0.391 µmol / cytotoxicity at 0.781 µmol / cytotoxicity at 1.563 µmol / cytotoxicity at 3.125 µmol / cytotoxicity at 6.25 µmol / cytotoxicity at 12.5 µmol / cytotoxicity at 25 µmol: read-out: Toxicity %; for viability at 0.391 µmol / cytotoxicity at 0.391 µmol: K-562, 0.391 umol; for viability at 0.781 µmol / cytotoxicity at 0.781 µmol: K-562, 0.781 umol; for viability at 1.563 µmol / cytotoxicity at 1.563 µmol: K-562, 1.563 umol; for viability at 3.125 µmol / cytotoxicity at 3.125 µmol: K-562, 3.125 umol; for viability at 6.25 µmol / cytotoxicity at 6.25 µmol: K-562, 6.25 umol; for viability at 12.5 µmol / cytotoxicity at 12.5 µmol: K-562, 12.5 umol; for viability at 25 µmol / cytotoxicity at 25 µmol: K-562, 25 umol; for IC50: MTT, K-562, read-out: Cytotoxicity against cancer cells IC50 K-562
caspase-9 = experiment: Caspase-9 expression level in HepG-2 cells; details: for Caspase-9 ± SE: HepG-2, at IC50 concentrations, control 11.01; for caspase-9 expression level, fold increase: HepG-2, vs control cells
Method: as §1, §2, §3, §4, §5, §6

SMILES: O=C(Cn1cnc2cc([N+](=O)[O-])ccc2c1=O)Nc1ccc(Cl)cc1 [9c, N-(4-Chlorophenyl)-2-(7-nitro-4-oxoquinazolin-3(4H)-yl)acetamide]
- TNF-alpha ±SE (TNF-alpha; HepG-2, at IC50 concentrations): 16.86 ± 2.39 ng/L
- TNF-alpha ±SE (TNF-alpha; raw data, HepG2): 23.47 ng/L
- viability at 0.195 µg/mL (HepG-2): 83.4%
- cytotoxicity at 0.195 µg/mL (HepG-2): 16.6%
- viability at 0.391 µg/mL (HepG-2): 70.3%
- cytotoxicity at 0.391 µg/mL (HepG-2): 29.7%
- viability at 0.781 µg/mL (HepG-2): 56.1%
- cytotoxicity at 0.781 µg/mL (HepG-2): 43.9%
- viability at 1.563 µg/mL (HepG-2): 34.4%
- cytotoxicity at 1.563 µg/mL (HepG-2): 65.6%
- viability at 3.125 µg/mL (HepG-2): 16.8%
- cytotoxicity at 3.125 µg/mL (HepG-2): 83.2%
- viability at 6.25 µg/mL (HepG-2): 11.7%
- cytotoxicity at 6.25 µg/mL (HepG-2): 88.3%
- viability at 12.5 µg/mL (HepG-2): 7.36%
- cytotoxicity at 12.5 µg/mL (HepG-2): 92.6%
- viability at 25 µg/mL (HepG-2): 6.23%
- cytotoxicity at 25 µg/mL (HepG-2): 93.8%
- IC50 (HepG-2): 1000 ± 4.9 nM
- viability at 0.195 µmol (MCF-7): 91.3%
- cytotoxicity at 0.195 µmol (MCF-7): 8.66%
- viability at 0.391 µmol (MCF-7): 68.1%
- cytotoxicity at 0.391 µmol (MCF-7): 31.9%
- viability at 0.781 µmol (MCF-7): 43%
- cytotoxicity at 0.781 µmol (MCF-7): 57%
- viability at 1.563 µmol (MCF-7): 27.7%
- cytotoxicity at 1.563 µmol (MCF-7): 72.3%
- viability at 3.125 µmol (MCF-7): 15.2%
- cytotoxicity at 3.125 µmol (MCF-7): 84.8%
- viability at 6.25 µmol (MCF-7): 11.2%
- cytotoxicity at 6.25 µmol (MCF-7): 88.8%
- viability at 12.5 µmol (MCF-7): 8.44%
- cytotoxicity at 12.5 µmol (MCF-7): 91.6%
- viability at 25 µmol (MCF-7): 6.82%
- cytotoxicity at 25 µmol (MCF-7): 93.2%
- IC50 (MCF-7): 672.4 ± 4.9 nM
- IL-6R ± SE (IL-6R): 11.87 ± 0.80 ng/L
- IL-6 ±SE (IL-6R): 24.59 ng/L
- Caspase-3 ± SE (caspase-3): 1.77 ± 0.08 ng/mL
- Caspase-3 ± SE (caspase-3; listed as N2): 1.77 ng/mL
- caspase-3 expression level, fold increase (caspase-3): 3.85 fold
- viability at 0.195 µmol (K-562): 80.6%
- cytotoxicity at 0.195 µmol (K-562): 19.4%
- viability at 0.391 µmol (K-562): 60%
- cytotoxicity at 0.391 µmol (K-562): 40%
- viability at 0.781 µmol (K-562): 33.6%
- cytotoxicity at 0.781 µmol (K-562): 66.4%
- viability at 1.563 µmol (K-562): 22.3%
- cytotoxicity at 1.563 µmol (K-562): 77.7%
- viability at 3.125 µmol (K-562): 11%
- cytotoxicity at 3.125 µmol (K-562): 89%
- viability at 6.25 µmol (K-562): 8.29%
- cytotoxicity at 6.25 µmol (K-562): 91.7%
- viability at 12.5 µmol (K-562): 7.43%
- cytotoxicity at 12.5 µmol (K-562): 92.6%
- viability at 25 µmol (K-562): 7.02%
- cytotoxicity at 25 µmol (K-562): 93%
- IC50 (K-562): 538.8 ± 1.7 nM
- Caspase-9 ± SE (caspase-9): 70.03 ± 0.47 ng/L
- Caspase-9 ± SE (caspase-9; listed as N2): 70.03 ng/L
- caspase-9 expression level, fold increase (caspase-9): 6.37 fold

SMILES: O=C(Cn1cnc2cc([N+](=O)[O-])ccc2c1=O)Nc1ccc(F)c(Cl)c1 [9e, N-(3-Chloro-4-fluorophenyl)-2-(7-nitro-4-oxoquinazolin-3(4H)-yl)acetamide]
- TNF-alpha ±SE (TNF-alpha; HepG-2, at IC50 concentrations): 34.27 ± 1.94 ng/L
- TNF-alpha ±SE (TNF-alpha; raw data, HepG2): 32.07 ng/L
- viability at 0.195 µg/mL (HepG-2): 87.5%
- cytotoxicity at 0.195 µg/mL (HepG-2): 12.5%
- viability at 0.391 µg/mL (HepG-2): 63.9%
- cytotoxicity at 0.391 µg/mL (HepG-2): 36.1%
- viability at 0.781 µg/mL (HepG-2): 55.2%
- cytotoxicity at 0.781 µg/mL (HepG-2): 44.8%
- viability at 1.563 µg/mL (HepG-2): 49.6%
- cytotoxicity at 1.563 µg/mL (HepG-2): 50.4%
- viability at 3.125 µg/mL (HepG-2): 25.9%
- cytotoxicity at 3.125 µg/mL (HepG-2): 74.1%
- viability at 6.25 µg/mL (HepG-2): 16.3%
- cytotoxicity at 6.25 µg/mL (HepG-2): 83.7%
- viability at 12.5 µg/mL (HepG-2): 8.39%
- cytotoxicity at 12.5 µg/mL (HepG-2): 91.6%
- viability at 25 µg/mL (HepG-2): 6.85%
- cytotoxicity at 25 µg/mL (HepG-2): 93.2%
- IC50 (HepG-2): 1510 ± 2 nM
- viability at 0.195 µmol (MCF-7): 54.8%
- cytotoxicity at 0.195 µmol (MCF-7): 45.2%
- viability at 0.391 µmol (MCF-7): 29.1%
- cytotoxicity at 0.391 µmol (MCF-7): 70.9%
- viability at 0.781 µmol (MCF-7): 20.9%
- cytotoxicity at 0.781 µmol (MCF-7): 79.1%
- viability at 1.563 µmol (MCF-7): 13.7%
- cytotoxicity at 1.563 µmol (MCF-7): 86.3%
- viability at 3.125 µmol (MCF-7): 9.89%
- cytotoxicity at 3.125 µmol (MCF-7): 90.1%
- viability at 6.25 µmol (MCF-7): 9.23%
- cytotoxicity at 6.25 µmol (MCF-7): 90.8%
- viability at 12.5 µmol (MCF-7): 8.22%
- cytotoxicity at 12.5 µmol (MCF-7): 91.8%
- viability at 25 µmol (MCF-7): 6.51%
- cytotoxicity at 25 µmol (MCF-7): 93.5%
- IC50 (MCF-7): 231.4 ± 2.3 nM
- IL-6R ± SE (IL-6R): 25.25 ± 0.16 ng/L
- IL-6 ±SE (IL-6R): 11.93 ng/L
- Caspase-3 ± SE (caspase-3): 0.77 ± 0.069 ng/mL
- Caspase-3 ± SE (caspase-3; listed as N4): 0.77 ng/mL
- caspase-3 expression level, fold increase (caspase-3): 1.6 fold
- viability at 0.195 µmol (K-562): 60.6%
- cytotoxicity at 0.195 µmol (K-562): 39.4%
- viability at 0.391 µmol (K-562): 47%
- cytotoxicity at 0.391 µmol (K-562): 53%
- viability at 0.781 µmol (K-562): 26.6%
- cytotoxicity at 0.781 µmol (K-562): 73.4%
- viability at 1.563 µmol (K-562): 19%
- cytotoxicity at 1.563 µmol (K-562): 81%
- viability at 3.125 µmol (K-562): 13.7%
- cytotoxicity at 3.125 µmol (K-562): 86.3%
- viability at 6.25 µmol (K-562): 10.8%
- cytotoxicity at 6.25 µmol (K-562): 89.2%
- viability at 12.5 µmol (K-562): 8.13%
- cytotoxicity at 12.5 µmol (K-562): 91.9%
- viability at 25 µmol (K-562): 6.53%
- cytotoxicity at 25 µmol (K-562): 93.5%
- IC50 (K-562): 346.9 ± 2.9 nM
- Caspase-9 ± SE (caspase-9): 25.20 ± 1.27 ng/L
- Caspase-9 ± SE (caspase-9; listed as N4): 25.20 ng/L
- caspase-9 expression level, fold increase (caspase-9): 2.29 fold
